How the values were obtained:
[1] = test system: human neutrophils; test: Apoptosis rate of isolated human neutrophil granulocytes (sub-G1 cells, propidium iodide, flow cytometry); type: cell-based; conditions: for prevention of the reduction of the apoptosis rate caused by CNP with or without budenoside / background apoptosis rate: Experiment 7, 1 mM test substance, 16 h; for prevention of the reduction of the apoptosis rate caused by CNP with or without budenoside: young volunteers; for background apoptosis rate: neutrophils from young volunteers
Experimental: The effect of ectoine on the apoptosis was investigated by way of human neutrophils. Neutrophils from young, healthy donors (3 male and 2 female) were isolated and treated with the amounts of ectoine (mM) indicated. Treatment was carried out with ectoine alone (open columns) and with 33 μg/ml of CNP (black columns). Ectoine was not administered in the control group (C).
The apoptotic cells were quantified in the following manner: The neutrophils were suspended in 300 μl of hypotonic solution containing propidium iodide (PI). The fluorescence of PI was determined by means of flow cytometry (FACScan cytometer, BD Biosciences). The results are shown as percentage of hypodiploidal DNA (sub-G1), corresponding to fragmented DNA which is characteristic of apoptotic cells.
The effect of ectoine on the apoptosis was investigated by way of human neutrophils. Neutrophils of young, healthy donors (3 male and 2 female) were isolated and pretreated for 2 hours with PBS (dark columns) and with 1 mM of ectoine (light columns). Subsequently, treatment took place with 33 μg/ml of carbon nanoparticles (ufCB: ultrafine carbon black), 300 nM LTB4, 20 ng/ml GM CSF or 1 μM of dexamethasone, respectively no treatment with proinflammatory factors. (†: significant difference with respect to control group; *: significant difference with respect to neutrophils treated with proinflammatory factors and PBS only; quantification of the apoptotic cells analogous to Experiment 2).
The neutrophil granulocytes were pretreated for 2 hours with 1 mM of ectoine resp. PBS following which treatment took place for 16 hours with 33 μg/ml CNP, 300 nM LTB4, 20 ng/ml GMCSF or PBS. […] (dark columns: pretreatment with ectoine; light columns: pretreatment with PBS; *: significant difference with respect to control group without CNP or inflammation mediators; §: significant difference with respect to the treatment without ectoine; quantification of the apoptotic cells analogously to Experiment 2).
For Experiments 5 to 7 neutrophil granulocytes were obtained from blood samples. Groups 1 and 2 consisted of persons who participated in a current patient study. Male patients (aged 40 to 80 years) with stable COPD history (GOLD III/IV) and healthy control patients from an identical age group.
The influence of ectoine in combination with the corticosteroid budesonide on the apoptosis rates of neutrophils is illustrated in FIG. 5. Sub-G1-cells were measured after propidium iodide coloration (FACS-flow cytometry). Cells: primary, peripheral neutrophils. Isolation of the neutrophils by Percoll® centrifugation. Cultivation of 2×10^6 neutrophils in the presence of 33 μg/ml CNP, 300 nM LTB4, 20 ng/ml GM-CSF, 1 μM budesonide, 1 mM ectoine and combinations thereof for 16 h. FIG. 5 A: cells cumulated from all samples (n=15), FIG. 5 B: cells from COPD patients (n=5), FIG. 5 C: cells from healthy age control group (n=5), FIG. 5 D: cells from young volunteers (n=5).
Sub-G1-cells were measured after propidium iodide coloration (FACS-flow cytometry). Cells: primary, peripheral, human neutrophils. Isolation of the neutrophils by Percoll® centrifugation and cultivation of 2×10^6 neutrophils in the presence of 33 μg/ml CNP, 1 μM budesonide, 1 mM ectoine, 1 mM urea, 1 mM ectoine amide and combinations thereof for 16 h. The cells were obtained from young volunteers (group 3), n=5, bud=budenoside. Two additional test substances (urea and the ectoine amide of 2-hydroxy-5-aminobenzoic acid) were examined to check whether they were capable of inhibiting anti-apoptotic effects on neutrophils.

[2] = test system: Mcl-1; test: Mcl-1 protein level in human primary peripheral neutrophils (western blot); type: cell-based; conditions: Experiment 6; 1 mM ectoine with 1 μM budesonide, also in the presence of 33 μg/ml CNP, 6 h
Experimental: (§1) The influence of ectoine in combination with budenoside on anti-apoptotic signals can be seen from FIG. 6. With selected samples of neutrophils relevant signals were detected via protein kinase B (Akt) and Mcl-1 by measurement of the Akt phosphorylation and the Mcl-1 protein level, with human primary peripheral neutrophils being used as cells. Isolation of the neutrophils by Percoll® centrifugation, the cultivation of 2×10^6 neutrophils in the presence of 33 μg/ml CNP, 1 μM budesonide, 1 mM ectoine and combinations thereof for 6 h. A protein isolation, western blot, luminescence on x-ray films was effected of material from each 3 COPD patients and 3 persons from the corresponding age control group.

[3] = test system: neutrophils; test: Neutrophil inflammation reactions in rats with carbon nanoparticles intratracheally administered; type: in vivo
Excerpt: Neutrophil inflammation reactions were examined in rats with carbon nanoparticles intratracheally administered. This involved administration both with and without ectoine. […] In the first place, the liberation of cinc-1 is initially due to epithelial cells and macrophages, whereas later on the liberation caused by the great amount of ultimately existing neutrophils dominates.
It thus follows that ectoine cannot only be used on a preemptive basis but also for the treatment of an already existing inflammation.
Carbon nanoparticles (CNP, 14 nm, Printex 90, Degussa, Frankfurt, Germany) were suspended in a phosphate buffered salt solution (PBS) by means of ultra-sonic treatment. Similarly, a 0.1 and a 1 mM solution of ectoine was produced in PBS. 0.4 ml of the CNP particle suspension was administered intratracheally to Fisher 344 female rats. Treatment with 0.4 ml of the ectoine solutions, respectively PBS took place after one and two days. The rats were sacrificed on the third day, their lungs purged with 4×5 ml of PBS each. The cells of the individual animals were suspended in 1 ml of PBS and centrifuged. The pellets were washed with PBS once and resuspended in 300 μl of hypotonic solution (0.1% sodium citrate, 0.1% triton×100) containing 50 μg/ml of propidium iodide (PI). To determine the rate of apoptosis a fluorescence measurement was finally performed.

[4] = test system: protein kinase B (Akt); test: Akt phosphorylation in human primary peripheral neutrophils (western blot); type: cell-based; conditions: Experiment 6; 1 mM ectoine with 1 μM budesonide, also in the presence of 33 μg/ml CNP, 6 h
Experimental: as §1

[5] = ectoine administered repeatedly after inflammation reaction triggered off several times

Row | SMILES | prevention of the reduction of the apoptosis rate caused by CNP with or without budenoside ([1]; 33 μg/ml CNP, 1 μM budesonide) | background apoptosis rate [1] | Mcl-1 protein level, ectoine against budesonide effect [2] | amount of neutrophils [3, 5] | cinc-1 level [3, 5] | liberation of cinc-1 ([3]; rats, carbon nanoparticles intratracheally with ectoine, after two days) | amount of neutrophils ([3]; rats, carbon nanoparticles intratracheally with ectoine, after two days, in comparison to the placebo group) | effect of ectoine given after commencement of the inflammatory reaction ([3]; two doses, one and two days after commencement of the inflammatory reaction) | Akt phosphorylation, ectoine against budesonide effect [4] | reduction of the apoptosis rate caused by CNP ([1]; Experiment 2, neutrophils from young healthy donors, 33 μg/ml CNP, significant amounts of ectoine) | apoptosis rate reduced by inflammatory stimulants ([1]; Experiment 4, COPD and non-COPD patients, 2 h pretreatment 1 mM ectoine, then 16 h 33 μg/ml CNP, 300 nM LTB4 or 20 ng/ml GMCSF) | anti-apoptotic effect of proinflammatory substances combined with budesonide, with ectoine ([1]; Experiment 5, CNP, LTB4, GM-CSF combined with 1 μM budesonide, 1 mM ectoine) | anti-apoptotic effect of budesonide, with ectoine ([1]; Experiment 5, pretreatment 1 mM ectoine, 1 μM budesonide, no proinflammatory substances, all groups) | compensation of the reduction of the apoptosis rate due to pro-inflammatory factors ([1]; isolated human neutrophil granulocytes, CNP, LTB4 or GM-CSF) | apoptosis rate, ectoine alone ([1]; neutrophils without previous treatment with pro-inflammatory factors) | effectiveness compared with ectoine ([1]; cf. FIG. 7)
1 | NC(N)=O [urea, reference compound] | this could not be achieved | did not have an influence on the background apoptosis rate |  |  |  |  |  |  |  |  |  |  |  |  |  | 
2 | CC1=NCC[C@@H](C(=O)O)N1 [ectoine, (S)-2-methyl-1,4,5,6-tetrahydropyrimidine-4-carboxylic acid] |  |  | capable of counteracting this effect | diminishing of the amount of neutrophils | lowering of the cinc-1 level | reduction of the liberation of cinc-1 | significant reduction of the amount of neutrophils | virtually had the same effect as an ectoine administration at the time the inflammatory reaction was triggered | capable of counteracting this effect | could virtually be eliminated | resulted in the apoptosis rate to be restored significantly | the anti-apoptotic effect was successfully prevented | obviates the anti-apoptotic effect of the budesonide significantly | can be compensated depending on concentration at least partially | did not result in an increase of the apoptosis rate | 
3 | CC1=NCCC(C(=O)Nc2ccc(O)c(C(=O)O)c2)N1 (stereo not drawn) [2-methyl-1,4,5,6-tetrahydropyrimidine-4-carboxylic acid amide of 2-hydroxy-5-aminobenzoic acid] | able to prevent the reduction of the apoptosis rate | did not have an influence on the background apoptosis rate |  |  |  |  |  |  |  |  |  |  |  |  |  | effectiveness comparable to ectoine itself

Reference: US20140315869A1, “THERAPEUTIC USES OF ECTOINE” (BITOP AG, priority 2011, published 2014)
